In US20260078120A1, “SUBSTITUTED PYRIDOPYRIMIDINONES” (MIRATI THERAPEUTICS, INC., priority 2022, published 2026) one finds IC50 data, which are given here for 20 compounds.

pIC50: −log10 of the molar value. Read-outs that look alike come from different tables or passages of the source.

The subject of test [1] is T47D (PI3Kα H1047R mutant) cells. Put plainly: CellTiter-Glo 2.0 luminescent cell viability assay, 72 hours, T47D cells. Type of test: cell-based. The settings on record: T47D (PI3Kα H1047R mutant) cells, CellTiter-Glo, approximately 72 hours, read-out: T47D (H1047R mutant) Viability IC50. The method, boiled down: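 Viability was measured by CellTiter-Glo 2.0 luminescence after approximately 72 h of compound exposure at 37° C. Plating was 1000 cells per well the day before dosing, with ten 1:4 dilutions from a 10 µM top concentration. Values as percent of vehicle were fitted by variable-slope log(inhibitor) regression to give IC50.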
A general note: In ATP-based viability assays light output follows the ATP content of the culture.

For test [2], the system named is SKBR3 (PI3Kα wild type) cells. As to the kind of experiment: CellTiter-Glo 2.0 luminescent cell viability assay, 72 hours, SKBR3 cells. Type of test: cell-based. The settings on record: Homo sapiens, SK-BR-3, 72 h, SKBR3 (PI3Kα wild type) cells, CellTiter-Glo, approximately 72 hours; read-out: SKBR3 (WT) Viability IC50. Summed up:
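Viability measured via CTG luminescence following roughly 72 hours of compound exposure at 37° C. Dosing used a 10 um starting concentration diluted 1:4 over 10 points; percent-of-vehicle data fitted with a variable-slope four-parameter model for IC50.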

Regarding `Cc1cc([C@@H](C)Nc2ccccc2C(=O)O)c2nc(N3CC4(COC4)C3)c(C#N)c(=O)n2c1` [Example 11-321, (R)-2-((1-(3-cyano-7-methyl-4-oxo-2-(2-oxa-6-azaspiro[3.3]heptan-6-yl)-4H-pyrido[1,2-a]pyrimidin-9-yl)ethyl)amino)benzoic acid], the pIC50 in test [1] (Homo sapiens, T47D, 72 h) was 5.55; in test [2], under 5.00.

Turning to `Cc1cc([C@@H](C)Nc2ccccc2C(=O)O)c2nc(N3CC4CC(C3)O4)c(C#N)c(=O)n2c1` [Example 11-322, 2-(((1R)-1-(2-(6-oxa-3-azabicyclo[3.1.1]heptan-3-yl)-3-cyano-7-methyl-4-oxo-4H-pyrido[1,2-a]pyrimidin-9-yl)ethyl)amino)benzoic acid], the pIC50 in test [1] (Homo sapiens, T47D, 72 h) was 6.15; in test [2] it was under 5.00.

`Cc1cc([C@@H](C)Nc2ccccc2C(=O)O)c2nc(N3CC4(CCC4)C3)c(C#N)c(=O)n2c1` [Example 11-323, (R)-2-((1-(3-cyano-7-methyl-4-oxo-2-(azaspiro[3.3]heptan-2-yl)-4H-pyrido[1,2-a]pyrimidin-9-yl)ethyl)amino)benzoic acid]: the pIC50 in test [1] (Homo sapiens, T47D, 72 h) was 6.81; in test [2], under 5.00.

For `Cc1cc([C@@H](C)Nc2ccccc2C(=O)O)c2nc(N3CCCC(O)C3)c(C#N)c(=O)n2c1` (stereo partly drawn) [Example 11-324, 2-(((1R)-1-(3-cyano-2-(3-hydroxypiperidin-1-yl)-7-methyl-4-oxo-4H-pyrido[1,2-a]pyrimidin-9-yl)ethyl)amino)benzoic acid], the pIC50 was 5.42 in test [1] (Homo sapiens, T47D, 72 h) and under 5.00 in test [2].

As for `Cc1cc([C@@H](C)Nc2cnc(Cl)nc2C(=O)O)c2nc(N3Cc4ccccc4C3)c(C#N)c(=O)n2c1` [Example 11-325, (R)-2-chloro-5-((1-(3-cyano-2-(isoindolin-2-yl)-7-methyl-4-oxo-4H-pyrido[1,2-a]pyrimidin-9-yl)ethyl)amino)pyrimidine-4-carboxylic acid], the pIC50 was 5.51 in test [1] (Homo sapiens, T47D, 72 h) and under 5.00 in test [2].

For the compound `C[C@@H](Nc1ccccc1C(=O)O)c1cc(C2CC2)cn2c(=O)c(C#N)c(N3Cc4ccccc4C3)nc12` [Example 11-326, (R)-2-((1-(3-cyano-7-cyclopropyl-2-(isoindolin-2-yl)-4-oxo-4H-pyrido[1,2-a]pyrimidin-9-yl)ethyl)amino)benzoic acid], the pIC50 in test [1] (Homo sapiens, T47D, 72 h) was 5.59; in test [2], 5.40.

Turning to `C[C@H](Nc1ccccc1C(=O)O)c1cc(C2CC2)cn2c(=O)c(C#N)c(N3Cc4ccccc4C3)nc12` [Example 11-327, (S)-2-((1-(3-cyano-7-cyclopropyl-2-(isoindolin-2-yl)-4-oxo-4H-pyrido[1,2-a]pyrimidin-9-yl)ethyl)amino)benzoic acid], the pIC50 in test [1] (Homo sapiens, T47D, 72 h) was 6.84; in test [2], 5.00.

As for `CCc1cc([C@@H](C)Nc2ccccc2C(=O)O)c2nc(N3Cc4ccccc4C3)c(C#N)c(=O)n2c1` [Example 11-328, (R)-2-((1-(3-cyano-7-ethyl-2-(isoindolin-2-yl)-4-oxo-4H-pyrido[1,2-a]pyrimidin-9-yl)ethyl)amino)benzoic acid], the negative-log IC50 (pIC50) is 5.72 in test [1] and 5.17 in test [2].

As for `Cc1cc([C@H](C)OC(=O)c2nc(Cl)ccc2N)c2nc(N3CCCCC3)c(C#N)c(=O)n2c1` [Example 11-329, (S)-1-(3-cyano-7-methyl-4-oxo-2-(piperidin-1-yl)-4H-pyrido[1,2-a]pyrimidin-9-yl)ethyl 3-amino-6-chloropicolinate], the pIC50 in test [1] (Homo sapiens, T47D, 72 h) is 5.96; in test [2], under 5.00.

On to `Cc1cc([C@@H](C)OC(=O)c2nc(Cl)ccc2N)c2nc(N3CCCCC3)c(C#N)c(=O)n2c1` [Example 11-330, (R)-1-(3-cyano-7-methyl-4-oxo-2-(piperidin-1-yl)-4H-pyrido[1,2-a]pyrimidin-9-yl)ethyl 3-amino-6-chloropicolinate], for which the pIC50 was under 5.00 in test [1] (Homo sapiens, T47D, 72 h) and under 5.00 in test [2].

As to `Cc1cc([C@@H](C)Nc2ccc(Cl)nc2C(=O)O)c2nc(N3CCCCC3)c(C#N)c(=O)n2c1` [Example 11-331, (R)-6-chloro-3-((1-(3-cyano-7-methyl-4-oxo-2-(piperidin-1-yl)-4H-pyrido[1,2-a]pyrimidin-9-yl)ethyl)amino)picolinic acid], the negative-log IC50 (pIC50) in test [1] (Homo sapiens, T47D, 72 h) was 6.52; in test [2], under 5.00.

In the case of `Cc1cc(C(C)Nc2ccc(Cl)nc2C(=O)O)c2nc(N3CCCCC3)c(C#N)c(=O)n2c1` (stereo not shown) [Example 11-332, 6-chloro-3-((1-(3-cyano-7-methyl-4-oxo-2-(piperidin-1-yl)-4H-pyrido[1,2-a]pyrimidin-9-yl)ethyl)amino)picolinic acid], the pIC50 in test [1] (Homo sapiens, T47D, 72 h) was 6.32; in test [2] it was 5.01.

Turning to `Cc1cc(C(C)Nc2ccccc2P(C)(=O)O)c2nc(N3Cc4ccccc4C3)cc(=O)n2c1` (stereo not shown) [Example 11-333, (2-((1-(2-(isoindolin-2-yl)-7-methyl-4-oxo-4H-pyrido[1,2-a]pyrimidin-9-yl)ethyl)amino)phenyl)(methyl) phosphinic acid], the pIC50 was under 5.00 in test [1] (Homo sapiens, T47D, 72 h) and under 5.00 in test [2].

As to `Cc1cc(C(C)Nc2ccccc2C(=O)O)c2nc(N3CCN(c4ccc(C#N)cc4)CC3)cc(=O)n2c1` (stereo not shown) [Example 11-334, 2-((1-(2-(4-(4-cyanophenyl)piperazin-1-yl)-7-methyl-4-oxo-4H-pyrido[1,2-a]pyrimidin-9-yl)ethyl)amino)benzoic acid], the pIC50 in test [1] (Homo sapiens, T47D, 72 h) is 6.95; in test [2], 5.90.

On to `Cc1cc(C(C)Nc2ccccc2C(=O)O)c2nc(N3CCN(c4ccccc4)CC3)cc(=O)n2c1` (stereo not shown) [Example 11-335, 2-((1-(7-methyl-4-oxo-2-(4-phenylpiperazin-1-yl)-4H-pyrido[1,2-a]pyrimidin-9-yl)ethyl)amino)benzoic acid], for which the pIC50 in test [1] (Homo sapiens, T47D, 72 h) was 6.41; in test [2] it was under 5.00.

In the case of `Cc1cc(C(C)Nc2ccccc2C(=O)O)c2nc(N3CCN(C(=O)C4CC4)CC3)cc(=O)n2c1` (stereo not shown) [Example 11-336, 2-((1-(2-(4-(cyclopropanecarbonyl)piperazin-1-yl)-7-methyl-4-oxo-4H-pyrido[1,2-a]pyrimidin-9-yl)ethyl)amino)benzoic acid], the pIC50 is 5.56 in test [1] (Homo sapiens, T47D, 72 h) and under 5.00 in test [2].

`CC(=O)N1CCN(c2cc(=O)n3cc(C)cc(C(C)Nc4ccccc4C(=O)O)c3n2)CC1` (stereo not shown) [Example 11-337, 2-((1-(2-(4-acetylpiperazin-1-yl)-7-methyl-4-oxo-4H-pyrido[1,2-a]pyrimidin-9-yl)ethyl)amino)benzoic acid]: the pIC50 in test [1] (Homo sapiens, T47D, 72 h) is under 5.00; in test [2], under 5.00.

In the case of `Cc1cc(C(C)Nc2ccccc2C(=O)O)c2nc(N3Cc4cccc(C#N)c4C3)cc(=O)n2c1` (stereo not shown) [Example 11-338, 2-((1-(2-(4-cyanoisoindolin-2-yl)-7-methyl-4-oxo-4H-pyrido[1,2-a]pyrimidin-9-yl)ethyl)amino)benzoic acid], the pIC50 in test [1] (Homo sapiens, T47D, 72 h) was 5.62; in test [2] it was under 5.00.

On to `Cc1cc(C(C)Nc2ccccc2C(=O)O)c2nc(Nc3cccc(C#N)c3)cc(=O)n2c1` (stereo not shown) [Example 11-339, 2-((1-(2-((3-cyanophenyl)amino)-7-methyl-4-oxo-4H-pyrido[1,2-a]pyrimidin-9-yl)ethyl)amino)benzoic acid], for which the negative logarithm of the IC50 (pIC50) in test [1] (Homo sapiens, T47D, 72 h) is under 5.00; in test [2], under 5.00.

Take `Cc1cc(C(C)Nc2ccccc2C(=O)O)c2nc(Oc3cccc(C#N)c3)cc(=O)n2c1` (stereo not shown) [Example 11-340, 2-((1-(2-(3-cyanophenoxy)-7-methyl-4-oxo-4H-pyrido[1,2-a]pyrimidin-9-yl)ethyl)amino)benzoic acid]: the pIC50 is under 5.00 in test [1] (Homo sapiens, T47D, 72 h) and under 5.00 in test [2].

For orientation: pIC50 means the negative decadic logarithm of the IC50, by convention in mol/L.
